Laboratory results taken from the supplement of paper PMC10307832.

Legend:
Assay in all cases: relative viability (nuclei count vs DMSO), 5 days (fraction); higher = more cells survive
[1] = compound: C1=CC=C(C(=C1)C2=CC=C(C=C2)C3=CSC4=C3C(=C(C(=O)N4)C#N)O)O
How it was run: (§1)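 Lung cancer cell lines in 1536-well plates were kept overnight at 37 °C, then pinned with five library-drug doses (not always all listed) spaced by √10 on vehicle-anchored plates. After 5 days without medium change, cells were fixed, permeabilised and Hoechst-stained in one step, imaged at 4×, and nuclei were counted with MetaXpress. Viability is treated-well nuclei divided by vehicle-well nuclei, taken as the median over plates. Plates passed only with control CV below 25% and at least one doubling.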

TGX 221 = compound: CC1=CN2C(=O)C=C(N=C2C(=C1)C(C)NC3=CC=CC=C3)N4CCOCC4 [TGX 221]
How it was run: as §1

Ricolinostat = compound: O=C(CCCCCCNC(=O)c1cnc(N(c2ccccc2)c2ccccc2)nc1)NO [Ricolinostat]
How it was run: as §1

Cell Line | relative viability ([1]; 0.08 µM) | relative viability ([1]; 0.253 µM) | relative viability ([1]; 0.8 µM) | relative viability ([1]; 2.53 µM) | relative viability ([1]; 8 µM) | relative viability (TGX 221; 0.08 µM) | relative viability (TGX 221; 0.253 µM) | relative viability (TGX 221; 0.8 µM) | relative viability (TGX 221; 2.53 µM) | relative viability (TGX 221; 8 µM) | relative viability (Ricolinostat; 0.08 µM) | relative viability (Ricolinostat; 0.253 µM) | relative viability (Ricolinostat; 0.8 µM) | relative viability (Ricolinostat; 2.53 µM)
NCI-H1648 | 0.644 | 0.68 | 0.755 | 0.794 | 0.739 | 0.736 | 0.656 | 0.974 | 0.686 | 0.873 | 0.719 | 1.04 | 0.745 | 0.792
NCI-H1650 | 0.727 | 1.29 | 0.913 | 0.93 | 0.612 | 0.979 | 0.816 | 0.862 | 0.859 | 0.705 | 0.774 | 0.884 | 0.789 | 0.678
NCI-H1651 | 0.997 | 0.973 | 1.07 | 1 | 0.821 | 0.923 | 0.891 | 0.953 | 0.956 | 0.879 | 0.913 | 0.936 | 0.971 | 0.966
NCI-H1666 | 1.02 | 1.3 | 1.03 | 0.998 | 0.873 | 1.01 | 0.955 | 0.946 | 0.97 | 0.933 | 0.963 | 0.948 | 0.986 | 0.904
NCI-H1703 | 0.929 | 0.965 | 0.902 | 0.892 | 0.789 | 0.892 | 0.785 | 0.776 | 0.672 | 0.634 |  | 1.01 | 0.928 | 1
NCI-H1734 | 0.833 | 0.992 | 0.971 | 1.01 | 0.753 | 0.91 | 0.892 | 1 | 0.934 | 0.9 | 0.81 | 1.03 | 0.935 | 0.894
NCI-H1755 | 1.06 | 1.08 | 0.991 | 1.05 | 0.923 | 0.954 | 0.971 | 0.972 | 0.915 | 0.828 | 0.885 | 0.961 | 0.978 | 1.03
NCI-H1793 | 0.786 | 1.17 | 0.9 | 0.834 | 0.945 | 0.858 | 0.628 | 0.748 | 0.574 | 0.668 |  | 0.924 | 0.905 | 0.898
NCI-H1915 | 0.967 | 1.06 | 0.892 | 1.05 | 0.869 | 0.937 | 0.985 | 0.993 | 0.871 | 0.994 | 0.899 | 0.968 | 0.976 | 0.862
NCI-H1944 | 0.902 | 1.05 | 0.94 | 0.965 | 0.844 | 0.82 | 0.915 | 0.911 | 0.883 | 0.851 | 0.835 | 1.03 | 0.876 | 0.692
NCI-H1975 | 0.892 | 0.949 | 0.932 | 0.887 | 0.772 | 0.911 | 0.866 | 0.998 | 0.844 | 0.785 | 0.928 | 0.895 | 0.803 | 0.872
NCI-H1993 | 0.892 | 1.17 | 0.897 | 0.87 | 0.83 | 0.878 | 0.762 | 0.886 | 0.681 | 0.877 | 0.726 | 1 | 0.999 | 1.04
NCI-H2009 | 0.971 | 1.01 | 0.987 | 1.01 | 0.884 | 0.967 | 0.987 | 1.01 | 0.999 | 0.868 | 0.861 | 0.929 | 0.905 | 0.75
NCI-H2023 | 0.996 | 1.04 | 1.02 | 1.01 | 0.722 | 0.901 | 0.89 | 0.927 | 0.889 | 0.845 | 0.752 | 1.01 | 0.931 | 0.821
NCI-H2085 | 0.905 | 1.13 | 0.982 | 0.964 | 0.917 | 1.01 | 0.933 | 0.863 | 0.644 | 0.585 |  | 0.986 | 0.972 | 0.88
NCI-H2087 | 1.02 | 1.21 | 1.08 | 1.05 | 0.637 | 1.19 | 1.15 | 1.12 | 1 | 0.988 | 0.912 | 1.02 | 0.974 | 0.699

Cell Line | relative viability ([1]; 0.08 µM) | relative viability ([1]; 0.253 µM) | relative viability ([1]; 0.8 µM) | relative viability ([1]; 2.53 µM) | relative viability ([1]; 8 µM) | relative viability (TGX 221; 0.08 µM) | relative viability (TGX 221; 0.253 µM) | relative viability (TGX 221; 0.8 µM) | relative viability (TGX 221; 2.53 µM) | relative viability (TGX 221; 8 µM) | relative viability (Ricolinostat; 0.08 µM) | relative viability (Ricolinostat; 0.253 µM) | relative viability (Ricolinostat; 0.8 µM) | relative viability (Ricolinostat; 2.53 µM)
NCI-H2126 | 0.943 | 1.09 | 1 | 0.963 | 0.979 | 0.945 | 0.989 | 0.968 | 0.837 | 0.944 | 0.718 | 1.01 | 0.989 | 0.969
NCI-H2170 | 1.01 | 0.961 | 0.953 | 0.995 | 0.804 | 0.959 | 0.958 | 0.989 | 0.93 | 0.993 | 0.904 | 0.939 | 1.01 | 1.04
NCI-H2228 | 1.08 | 1.1 | 1.19 | 1.07 | 0.782 | 0.831 | 0.97 | 1.04 | 0.846 | 0.996 | 0.99 | 0.981 | 0.944 | 0.921
NCI-H2342 | 0.971 | 1.15 | 0.926 | 0.953 | 0.795 | 0.912 | 0.997 | 0.947 | 1.01 | 0.945 | 0.768 | 0.912 | 0.916 | 1.05
NCI-H2347 | 0.996 | 1.15 | 0.989 | 1.07 | 0.916 | 0.898 | 0.987 | 0.986 | 0.88 | 0.851 | 0.911 | 0.964 | 0.994 | 0.92
NCI-H2405 | 0.977 | 0.995 | 0.927 | 0.958 | 0.955 | 0.949 | 0.991 | 0.968 | 0.954 | 0.889 | 0.878 | 1 | 1.01 | 0.802
NCI-H3122 | 0.974 | 1.03 | 1.03 | 1.08 | 0.843 | 1 | 0.985 | 1.02 | 0.969 | 1.01 | 0.94 | 1.01 | 0.992 | 1.07
PC-3 [JPC-3] | 0.898 | 1.11 | 0.959 | 1.08 | 0.944 | 0.971 | 1.05 | 1.04 | 0.998 | 1.03 | 0.801 | 0.977 | 1.01 | 0.883
PC-14 | 0.844 | 1.24 | 0.952 | 1.09 | 0.806 | 0.913 | 0.953 | 0.983 | 1.02 | 0.907 | 0.932 | 0.927 | 0.902 | 0.798
RERF-LC-KJ | 1.07 | 1.07 | 0.987 | 1.01 | 0.8 | 0.895 | 0.933 | 0.964 | 0.917 | 0.938 | 0.955 | 1.02 | 0.984 | 0.814
SK-LU-1 | 1.11 | 0.96 | 0.994 | 1.16 | 0.81 | 0.954 | 0.964 | 0.963 | 0.932 | 0.876 | 0.939 | 0.981 | 0.995 | 0.72
SK-MES-1 | 1.01 | 1.06 | 1.01 | 1.04 | 0.819 | 1.01 | 0.958 | 0.941 | 0.75 | 0.67 | 0.824 | 0.979 | 0.983 | 0.979
SW 900 | 0.81 | 1.22 | 0.809 | 0.773 | 0.56 | 0.839 | 0.938 | 0.742 | 0.608 | 0.601 | 0.591 | 0.832 | 0.647 | 0.74
SW 1573 | 1.06 | 1.17 | 1.01 | 1.03 | 0.738 | 0.895 | 0.876 | 0.961 | 0.906 | 0.902 | 0.936 | 1.07 | 0.896 | 1.02
UMC-11 | 0.793 | 0.892 | 1.07 | 0.921 | 0.813 | 0.957 | 0.91 | 1 | 0.976 | 1.08 | 0.889 | 0.945 | 0.866 | 0.464
